# Test results: paper PMC3672920, “Sulfated Metabolites of Polychlorinated Biphenyls Are High-Affinity Ligands for the Thyroid Hormone Transport Protein Transthyretin” (Environmental Health Perspectives, 2013)
# Structures can show the parent of a compound that is named as a salt.
# Key:
# TTR = biological target: T1, TTR (Homo sapiens, UniProt P02766); assay: HPLC analysis of PCB sulfates after incubation with TTR (stability, reversibility); format: physicochemical; conditions: 5 µM PCB sulfate, 0.5 µM TTR, phosphate buffer pH 7.4, 25°C, up to 120 min
# T1 construct: TTR purified from human plasma (> 95%); purchased Sigma-Aldrich; host or cells: human plasma
# Experimental: HPLC analysis of PCB sulfates. TTR (0.5 µM) and PCB sulfate (5 µM) were incubated in phosphate buffer (50 mM sodium phosphate, 100 mM NaCl; pH 7.4) at 25°C (± 0.5°C) for 120 min. After 0, 60, and 120 min, 20 µL samples were analyzed for PCB sulfates by chromatography on a C18 HPLC column with a linear acetonitrile gradient (15–95%) in triethylammonium acetate (1% vol/vol; pH 7.5). Detailed HPLC conditions and representative chromatograms are provided in Supplemental Material, Figure S3 (http://dx.doi.org/10.1289/ehp.1206198).
# Supplemental Material, Fi g u r e S6: PCB sulfates are stable upon incubation with TTR, and the interaction is non-covalent. 5µM samples of PCB sulfates were incubated for up t o 120 […]
# sodium phosphate, 100 mM NaCl, pH 7.4) at 25 °C. Their quantitative recover y (as compared to a corresponding 5 µM PCB sulfate standard) by HPLC indicated non- covalent binding interactions between PCB sulfates and TTR.
# (1 picture or pasted object on this page, not shown here)
# recombinant hSULT1A1 = system: T2, recombinant hSULT1A1; assay: Sulfotransferase assay (PAP formation, HPLC); format: in vitro ADME, human; conditions: 200 µM PAPS, 37°C, pH 7.0, 10 min; for substrate for human SULT1A1: 0, 10, 20 or 30 µM OH-PCB, cytosolic extract of E. coli expressing hSULT1A1; for specific activity (rate of sulfation) with hSULT1A1, ranking in words: 10–30 µM OH-PCB
# T2 construct: purchased Xenotech; host or cells: E. coli
# Experimental: Sulfotransferase assay. The assays for sulfation of OH-PCBs catalyzed by hSULT1A1 were conducted according to a previously published procedure ([Liu et al. 2009]). Assay mixtures containing 0, 10, 20, or 30 µM of the potential substrate were preincubated at 37°C in the presence of 200 µM PAPS and 7.5 mM 2-mercaptoethanol in 250 mM potassium phosphate at pH 7.0. After adding 1 µL of cytosolic extract of E. coli expressing hSULT1A1 (10 µg cytosolic protein), the reaction mixture (total volume 30 µL) was incubated for 10 min before the reaction was terminated by the addition of 30 µL methanol. Samples (20 µL) were subsequently analyzed by HPLC to determine the amount of PAP formed in the reaction ([Sheng et al. 2001]).
# [1] = biological target: T3, TTR purified from human plasma (Homo sapiens, UniProt P02766); assay: ANS displacement assay (fluorescence probe displacement) for binding to TTR; conditions: low-affinity (second) binding site on TTR; ligand ≤ 2,000 nM; all data points fit to two-site binding equation; read-out: Kd2
# T3 construct: TTR purified from human plasma (> 95%); purchased Sigma-Aldrich; host or cells: human plasma
# Experimental: Three fluorescence measurements were averaged per determination, and at least three separate determinations were made at each ligand concentration. The protocol was optimized for ligand concentrations of ≤ 2,000 nM, and assays were conducted at 25°C (± 0.2°C) in quartz cuvettes with a 1-cm path length. […] Binding data were evaluated by fitting the means of each determination to both a one-site plus nonspecific binding equation [y = (Bmax1 × x)/(Kd1 + x) + Ns] and a two-site binding equation [y = (Bmax1 × x)/(Kd1 + x) + (Bmax2 × x)/(Kd2 + x)]. In these equations, Kd1 is the dissociation constant for the TTR-ligand complex and Kd2 is the dissociation constant for the TTR complex with two bound ligands, Bmax1 and Bmax2 are the relative changes in fluorescence required to saturate the respective binding sites and Ns is a constant representing low-affinity interactions. […] The variables x and y represent ligand concentrations and changes in fluorescence (Δ fluorescence), respectively. […] In order to determine Kd2 values, all available data points were fit to the two-site binding equation.
SMILES,recovery of PCB sulfate by HPLC after incubation with TTR (stability) (TTR),substrate for human SULT1A1 (recombinant hSULT1A1),"specific activity (rate of sulfation) with hSULT1A1, ranking in words (recombinant hSULT1A1)",Kd [1] [µM],melting point
"O=S(=O)(O)Oc1ccccc1-c1ccc(Cl)cc1 [2´PCB 3 sulfate, 2´-sulfooxy-4-chloro-biphenyl]",quantitatively recovered,,,,
"O=S(=O)(O)Oc1ccc(-c2ccc(Cl)cc2)cc1 [4´PCB 3 sulfate, 4-chloro-4´-sulfooxy-biphenyl]",quantitatively recovered,,,,
"Oc1ccc(-c2ccc(Cl)cc2)cc1 [4´OH-PCB 3, 4´-chloro-biphenyl-4-ol]",,substrates,slightly lower specific activities,,
"Oc1ccccc1-c1ccc(Cl)cc1 [2´OH-PCB 3, 4´-chloro-biphenyl-2-ol]",,substrates,highest specific activities,,
"O=S(=O)(O)Oc1ccc(-c2ccc(Cl)c(Cl)c2)cc1 [4´PCB 12 sulfate, 3,4-dichloro-4´-sulfooxy-biphenyl]",quantitatively recovered,,,0.742 ± 0.058,
"O=S(=O)(O)Oc1cccc(-c2ccc(Cl)cc2)c1 [3´PCB 3 sulfate, 3´-sulfooxy-4-chloro-biphenyl]",quantitatively recovered,,,,
"O=S(=O)(O)Oc1ccc(-c2cccc(Cl)c2)cc1Cl (as salt: ammonium) [4´PCB 11 sulfate, 3,3´-dichloro-4´-sulfooxy-biphenyl]",,,,,220 °C (dec.)
"O=S(=O)(O)Oc1ccc(-c2cccc(Cl)c2)cc1Cl [4´PCB 11 sulfate, 3,3´-dichloro-4´-sulfooxy-biphenyl]",quantitatively recovered,,,0.624 ± 0.063,
"Oc1ccc(-c2cccc(Cl)c2)cc1Cl [4´OH-PCB 11, 3,3´-dichloro-biphenyl-4-ol]",,substrates,slightly lower specific activities,0.624 ± 0.207,
"Oc1ccc(-c2ccc(Cl)c(Cl)c2)cc1 [4´OH-PCB 12, 3´,4´-dichloro-biphenyl-4-ol]",,substrates,slightly lower specific activities,0.825 ± 0.047,
"Oc1cccc(-c2ccc(Cl)cc2)c1 [3´OH-PCB 3, 4´-chloro-biphenyl-3-ol]",,substrates,highest specific activities,,
